We go through 2 compounds from patent US10945932B2, “Prebiotic oral care compositions containing carboxylic acids” (COLGATE-PALMOLIVE COMPANY, priority 2013, dated 2021).

The assay relates to Streptococcus mitis. The note with it: S mitis, BHI.

Like-named read-outs stand apart in the source and are kept apart here.

Procedure: Late exponential growth phase liquid cultures were prepared by transferring the respective bacterium from blood agar plates to BHI and overnight incubation at 37° C. in an anaerobic atmosphere for A. viscosus, V. parvula, F. nucleatum, P. gingivalis, P. intermedia, T forsythia, A. naeslundii, and C. sputigena, and in a 5% CO2 environment for S. salivarius, S. sanguinis, S. mitis, A. actinomycetemcomitans, S. mutans, S. sobrinus and S. gordonii. Overnight cultures were transferred to BHI and adjusted to a concentration of 1×10^7 CFU/ml (colony forming units per ml) by measuring the optical density at 600 nm (OD600) (BioRad SmartSpec 3000). For each strain, 200 μl of the bacterial suspension was added to a 96-well plate containing 20 μl of the respective carboxylic acids. Final concentrations of the carboxylic acids were set to 5, 10, 20 and 25 μmol/ml. […] Plates were incubated as previously described.
For each combination of bacterium/carboxylic acid, and for each of their respective controls (i.e. the particular bacterium in the nutritionally rich medium with no carboxylic acid), the optical density was measured at 630 nm (OD630) at 0 h, 24 h and 48 h (Thermo Scientific Multiskan Ascent). Additionally, the OD630 for combinations of bacterium/carboxylic acid grown in a 5% CO2 environment were also measured every hour between 0 h and 9 h.
The experiment was carried out on three different days (thus providing 3 biological replicas) and on each day the experiment was carried out in quadruple (thus providing 4 technical replicas) for each combination of bacterium with carboxylic acid and for each control. For each day and for each combination, the average (mean) of the values obtained (as detailed above) for the four technical replicas was calculated to provide a single value for each combination on each day.

With `N[C@@H](CC(=O)O)C(=O)O` [L-aspartic acid], the “extent of growth, maximal OD630 over 48 hr divided by maximal OD of control (control = 1)” value was 1.2333 (5 μmol/ml), 1.2959 (10 μmol/ml), 1.2536 (20 μmol/ml) and 1.1257 (25 μmol/ml).

`O=C(O)CCC(=O)O` [Succinic acid, succinic acid]: the “extent of growth, maximal OD630 over 48 hr divided by maximal OD of control (control = 1)” value runs as follows: (5 μmol/ml) 0.7273; (10 μmol/ml) 0.7615; (20 μmol/ml) 0.4339; (25 μmol/ml) 0.1591.
